test system: NCI-H1417 cells; assay: Cell growth suppression test, CellTiter-Glo Luminescent Cell Viability Assay; format: cell-based; details: Homo sapiens, 240 h; NCI-H1417 cells treated for 10 days
Protocol: Cell growth suppression effects of the synthesized compounds on NCI-H1417 cells were identified. The cells were treated with the synthesized compounds for 10 days. Then, in order to test the cell growth suppression, CellTiter-Glo Luminescent Cell Viability Assay (available from Promega, USA) was used. This test is to measure emission signals proportional to the number of ATPs based on a fixed amount of ATPs, which represents the presence of metabolically active cells, thereby determining the number of viable cells. The results are expressed as a GI50 value. As for a control, GSK2879552 (available from GlaxoSmithKline USA) was used.

Structure (SMILES)	GI50
COC1CCN(c2ccc(-n3nc(C(=O)N4CCC[C@@H](N)C4)cc3-c3ccc(C#N)c(F)c3)c(F)c2)C1 (stereo partly drawn) [Example 65, 4-(3-((R)-3-aminopiperidine-1-carbonyl)-1-(2-fluoro-4-(3-methoxypyrrolidin-1-yl)phenyl)-1H-pyrazol-5-yl)-2-fluorobenzonitrile]	58 nM
CN[C@@H]1CCCN(C(=O)c2cc(-c3ccc(C#N)c(F)c3)n(-c3ccc(N4CCC(OC)C4)cc3F)n2)C1 (stereo partly drawn) [Example 66, 2-fluoro-4-(1-(2-fluoro-4-(3-methoxypyrrolidine-1-yl)phenyl)-3-((R)-3-(methylamino)piperidine-1-carbonyl)-1H-pyrazole-5-yl)benzonitrile]	16 nM
CO[C@H]1CCN(c2ccc(-n3nc(C(=O)N4CCC[C@@H](N)C4)cc3-c3ccc(C#N)c(F)c3)c(F)c2)C1 [Example 67, 4-(3-((R)-3-aminopiperidine-1-carbonyl)-1-(2-fluoro-4-((S)-3-methoxypyrrolidine-1-yl)phenyl)-1H-pyrazole-5-yl)-2-fluorobenzonitrile]	30 nM
CN[C@@H]1CCCN(C(=O)c2cc(-c3ccc(C#N)c(F)c3)n(-c3ccc(N4CC[C@H](OC)C4)cc3F)n2)C1 [Example 68, 2-fluoro-4-(1-(2-fluoro-4-((S)-3-methoxypyrrolidine-1-yl)phenyl)-3-((R)-3-(methylamino)piperidine-1-carbonyl)-1H-pyrazole-5-yl)benzonitrile]	6.8 nM
CO[C@@H]1CCN(c2ccc(-n3nc(C(=O)N4CCC[C@@H](N)C4)cc3-c3ccc(C#N)c(F)c3)c(F)c2)C1 [Example 69, 4-(3-((R)-3-aminopiperidine-1-carbonyl)-1-(2-fluoro-4-((R)-3-methoxypyrrolidine-1-yl)phenyl)-1H-pyrazole-5-yl)-2-fluorobenzonitrile]	38 nM
CN[C@@H]1CCCN(C(=O)c2cc(-c3ccc(C#N)c(F)c3)n(-c3ccc(N4CC[C@@H](OC)C4)cc3F)n2)C1 [Example 70, 2-fluoro-4-(1-(2-fluoro-4-((R)-3-methoxypyrrolidine-1-yl)phenyl)-3-((R)-3-(methylamino)piperidine-1-carbonyl)-1H-pyrazole-5-yl)benzonitrile]	18 nM
CCO[C@H]1CCN(c2ccc(-n3nc(C(=O)N4CCC[C@@H](NC)C4)cc3-c3ccc(C#N)c(F)c3)c(F)c2)C1 [Example 71, 2-fluoro-4-(1-(2-fluoro-4-((S)-3-ethoxypyrrolidine-1-yl)phenyl)-3-((R)-3-(methylamino)piperidine-1-carbonyl)-1H-pyrazole-5-yl)benzonitrile]	10 nM
N#Cc1ccc(-c2cc(C(=O)N3CCC[C@@H](N)C3)nn2-c2ccc(N3CCC(O)C3)cc2F)cc1F (stereo partly drawn) [Example 72, 4-(3-((R)-3-aminopiperidine-1-carbonyl)-1-(2-fluoro-4-(3-hydroxypyrrolidine-1-yl)phenyl)-1H-pyrazole-5-yl)-2-fluorobenzonitrile]	38 nM
CN[C@@H]1CCCN(C(=O)c2cc(-c3ccc(C#N)c(F)c3)n(-c3ccc(N4CC[C@H](Cl)C4)cc3F)n2)C1 [Example 73, 2-fluoro-4-(1-(2-fluoro-4-((S)-3-chloropyrrolidine-1-yl)phenyl)-3-((R)-3-(methylamino)piperidine-1-carbonyl)-1H-pyrazole-5-yl)benzonitrile]	39 nM
N#Cc1ccc(-c2cc(C(=O)N3CCC[C@@H](N)C3)nn2-c2c(F)cc(N3CCCC3)cc2F)cc1F [Example 74, (R)-4-(3-(3-aminopiperidine-1-carbonyl)-1-(2,6-difluoro-4-(pyrrolidine-1-yl)phenyl)-1H-pyrazole-5-yl)-2-fluorobenzonitrile]	8.8 nM
N#Cc1ccc(-c2cc(C(=O)N3CCC[C@@H](N)C3)nn2-c2ccc(N3CCCC3)cc2Cl)cc1F [Example 75, (R)-4-(3-(3-aminopiperidine-1-carbonyl)-1-(2-chloro-4-(pyrrolidine-1-yl)phenyl)-1H-pyrazole-5-yl)-2-fluorobenzonitrile]	52 nM

From patent publication US11254676B2, “Pyrazole derivative compound and use thereof” (HANMI PHARM. CO., LTD., priority 2017, dated 2022)
